How the values were obtained:
Assay in all cases: relative viability (nuclei count vs DMSO), 5 days (fraction); higher = more cells survive
Midostaurin + Dasatinib = compound: CO[C@@H]1[C@H](N(C)C(=O)c2ccccc2)C[C@H]2O[C@]1(C)n1c3ccccc3c3c4c(c5c6ccccc6n2c5c31)C(=O)NC4 [Midostaurin] + Cc1nc(Nc2ncc(C(=O)Nc3c(C)cccc3Cl)s2)cc(N2CCN(CCO)CC2)n1 [Dasatinib] (partner 0.075 µM)
In short: (§1)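 Dosing by pin tool came one day after lung cancer cell lines were seeded in 1536-well plates, using either one drug or a fixed anchor-drug dose plus five library-drug doses (not always all listed) in √10 steps. After 5 days, nuclei were counted on 4× images. Relative viability is treated-well nuclei count divided by vehicle-well nuclei count, and values are medians of duplicate plates.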

[1] = compound: COc1cc(-c2nn([C@H]3CC[C@H](N4CCN(C(C)=O)CC4)CC3)c3ncnc(N)c23)ccc1NC(=O)c1cc2ccccc2n1C + Cc1cc(Nc2cc(N3CCN(C)CC3)nc(Sc3ccc(NC(=O)C4CC4)cc3)n2)n[nH]1 [Tozasertib] (partner 0.1 µM)
In short: as §1

Midostaurin + Trametinib = compound: CO[C@@H]1[C@H](N(C)C(=O)c2ccccc2)C[C@H]2O[C@]1(C)n1c3ccccc3c3c4c(c5c6ccccc6n2c5c31)C(=O)NC4 [Midostaurin] + CC(=O)Nc1cccc(-n2c(=O)n(C3CC3)c(=O)c3c(Nc4ccc(I)cc4F)n(C)c(=O)c(C)c32)c1 [Trametinib] (partner 0.02 µM)
In short: as §1

[2] = compound: COc1cc(-c2nn([C@H]3CC[C@H](N4CCN(C(C)=O)CC4)CC3)c3ncnc(N)c23)ccc1NC(=O)c1cc2ccccc2n1C + O=C(CCCCCCC(=O)Nc1ccccc1)NO [Vorinostat] (partner 1 µM)
In short: as §1

[3] = compound: COc1cc(-c2nn([C@H]3CC[C@H](N4CCN(C(C)=O)CC4)CC3)c3ncnc(N)c23)ccc1NC(=O)c1cc2ccccc2n1C + CC(C)C[C@H](NC(=O)[C@H](Cc1ccccc1)NC(=O)c1cnccn1)B(O)O [Bortezomib] (partner 0.002 µM)
In short: as §1

Row | Cell Line | relative viability (Midostaurin + Dasatinib; first compound 0.01 µM) | relative viability (Midostaurin + Dasatinib; first compound 0.03162 µM) | relative viability (Midostaurin + Dasatinib; first compound 0.1 µM) | relative viability (Midostaurin + Dasatinib; first compound 0.3162 µM) | relative viability ([1]; first compound 0.0128 µM) | relative viability ([1]; first compound 0.04048 µM) | relative viability ([1]; first compound 0.128 µM) | relative viability ([1]; first compound 1.28 µM) | relative viability (Midostaurin + Trametinib; first compound 0.01 µM) | relative viability (Midostaurin + Trametinib; first compound 0.03162 µM) | relative viability (Midostaurin + Trametinib; first compound 0.1 µM) | relative viability (Midostaurin + Trametinib; first compound 0.3162 µM) | relative viability ([2]; first compound 0.0128 µM) | relative viability ([2]; first compound 0.04048 µM) | relative viability ([2]; first compound 0.128 µM) | relative viability ([2]; first compound 1.28 µM) | relative viability ([3]; first compound 0.0128 µM) | relative viability ([3]; first compound 0.04048 µM) | relative viability ([3]; first compound 0.128 µM) | relative viability ([3]; first compound 1.28 µM)
1 | 201T | 0.557 | 0.533 | 0.562 | 0.558 | 1 | 0.949 | 0.854 | 0.523 | 0.714 | 0.707 | 0.755 | 0.795 | 1.01 | 1.1 | 0.909 | 0.654 | 1.14 | 1.16 | 1.06 | 1.03
2 | A-427 | 0.726 | 0.63 | 0.607 | 0.704 | 0.221 |  | 0.222 | 0.185 | 0.671 | 0.809 | 0.712 | 0.637 | 0.9 | 0.972 | 0.763 | 0.856 | 1.04 | 0.782 | 0.935 | 0.96
3 | ABC-1 | 0.512 | 0.668 | 0.451 | 0.504 | 0.151 | 0.205 | 0.176 | 0.154 |  |  |  |  | 1.21 | 0.965 | 1.19 | 1.14 | 0.212 | 0.32 | 0.26 | 0.3
4 | Calu-6 |  |  |  |  |  |  |  |  |  |  |  |  |  |  |  |  | 1.04 | 1.05 | 0.869 | 0.754
5 | EBC-1 |  |  |  |  |  |  |  |  |  |  |  |  |  |  |  |  | 0.575 | 0.554 | 0.521 | 0.481
6 | HCC-44 |  |  |  |  | 0.707 | 1.29 | 0.796 | 0.819 | 1.05 | 1.01 | 1.06 | 1.05 | 1.24 | 1.1 | 1.12 | 1.18 | 0.993 | 0.886 | 0.897 | 1.27
7 | IA-LM |  |  |  |  |  |  |  |  |  |  |  |  | 1.07 | 0.877 | 0.79 | 0.912 | 0.847 | 1.07 | 0.896 | 0.631
8 | LK-2 | 0.333 | 0.251 | 0.393 | 0.501 | 0.195 | 0.155 | 0.184 | 0.165 | 0.767 | 0.713 | 0.855 | 0.618 | 0.365 | 0.162 | 0.288 | 0.183 |  |  |  | 
9 | NCI-H358 | 0.177 | 0.124 | 0.15 | 0.208 | 0.107 | 0.104 | 0.103 | 0.0932 | 0.146 | 0.158 | 0.133 | 0.14 | 0.706 | 0.672 | 0.523 | 0.646 |  |  |  | 
10 | NCI-H522 | 0.981 | 0.995 | 0.789 | 1.04 | 0.614 | 0.59 | 0.566 | 0.445 | 0.719 | 0.825 | 0.752 | 0.839 | 0.898 | 0.946 | 0.823 | 0.79 |  |  |  | 
11 | NCI-H1299 |  |  |  |  |  |  |  |  |  |  |  |  |  |  |  |  | 1.02 | 1.14 | 1.06 | 1.22
12 | NCI-H1395 | 0.435 | 0.38 | 0.404 | 0.403 | 0.77 | 0.81 | 0.714 | 0.561 | 0.978 | 0.991 | 1.15 | 1.08 | 0.823 | 0.594 | 0.698 | 0.516 |  |  |  | 
13 | NCI-H1563 | 0.402 | 0.469 | 0.43 | 0.465 |  |  |  |  |  |  |  |  |  |  |  |  | 0.916 | 0.882 | 0.824 | 0.664
14 | NCI-H1623 | 0.53 | 0.594 | 0.507 | 0.652 | 0.449 | 0.419 | 0.424 | 0.41 |  |  |  |  |  |  |  |  |  |  |  | 
15 | NCI-H1648 |  |  |  |  | 0.381 | 0.514 | 0.469 | 0.3 | 0.532 |  |  | 0.432 | 0.536 | 0.48 | 0.526 | 0.341 |  |  |  | 
16 | NCI-H1703 |  |  |  |  |  |  |  |  |  |  |  |  |  |  |  |  | 0.286 | 0.45 | 0.298 | 0.235
17 | NCI-H1792 | 0.793 | 0.779 | 0.669 | 0.611 |  |  |  |  | 0.508 | 0.37 | 0.383 | 0.338 |  |  |  |  | 1.03 | 0.883 | 0.948 | 0.67
18 | NCI-H1793 | 0.481 | 0.38 | 0.345 | 0.362 | 0.367 | 0.343 | 0.228 | 0.126 | 0.403 | 0.402 | 0.438 | 0.428 | 0.981 | 0.658 | 0.794 | 0.528 |  |  |  | 
19 | NCI-H1944 | 0.222 | 0.227 | 0.234 | 0.222 | 0.265 | 0.257 | 0.24 | 0.196 | 0.419 | 0.398 | 0.39 | 0.413 | 0.654 | 0.641 | 0.578 | 0.416 |  |  |  | 
20 | NCI-H2170 | 0.572 | 0.55 | 0.512 | 0.735 | 0.805 | 0.738 | 0.688 | 0.639 | 0.965 | 0.9 | 0.894 | 1.02 | 1.09 | 0.969 | 0.8 | 0.704 |  |  |  | 
21 | NCI-H2342 | 0.332 | 0.305 | 0.319 | 0.327 | 0.595 | 0.523 | 0.491 | 0.303 | 0.895 | 0.735 | 0.89 | 0.778 | 0.762 | 0.758 | 0.861 | 0.825 |  |  |  | 
22 | SK-MES-1 | 0.309 | 0.36 | 0.393 | 0.237 | 0.906 | 1.01 | 0.827 | 0.936 | 0.57 | 0.565 | 0.526 | 0.493 | 1.17 | 1.14 | 1.08 | 1.13 |  |  |  | 
23 | SW 900 | 0.7 | 0.684 | 0.538 | 0.275 | 0.665 | 0.539 | 0.402 | 0.343 | 0.759 | 0.919 | 0.743 | 0.962 | 0.806 | 0.582 | 0.511 | 0.621 |  |  |  | 
